The source of these data is patent EP4755886A1 (Chengdu Chipscreen Pharmaceutical Ltd., priority 2023, dated 2025).

A value given as a limit tells only on which side of the number the result lay.

The nature of series [1]: Human liver microsome stability. In kind it is in vitro ADME. The following applies: pH 7.4; human liver microsomes 0.5 mg/mL, compound 1 µM, NADPH 1 mM, 37 °C. The procedure:
Experimental materials: human liver microsomes (purchased from BIOIVT);
PBS: 0.1 M KH2PO4 and K2HPO4 buffers, pH 7.4.
MgCl2: a certain amount of MgCl2 was weighed out and prepared into a 16 mM MgCl2 solution with PBS.
NADPH (Chinese name: reduced nicotinamide adenine dinucleotide phosphate, purchased from Sigma, Cat. No.: 481973-500 mg): a certain amount of NADPH was weighed out and a 4 mM solution of NADPH was prepared with a 16 mM MgCl2 solution, and the final incubation concentration was 1 mM.
Compounds: 4 µM solutions of the test compounds and positive compounds were prepared with PBS, and the final incubation concentration was 1 µM.
Liver microsomes (purchased from BIOIVT, Cat. No.: X008070): the liver microsomes were diluted to […] with PBS, and the final incubation concentration was 0.5 mg/mL.
The prepared test compound or positive compound was added to a test tube, and then the prepared NADPH was added. The mixture was mixed well. The mixture was pre-incubated in a thermostat incubator at 220 rpm at 37 °C for 5 min, and the prepared liver microsomes were added to start the reaction. All steps were performed in replicate wells. At 0 min, 15 min, 30 min, 45 min, and 60 min, a certain volume of glacial acetonitrile solution containing an internal standard was added to the corresponding tube to precipitate the protein. The mixture was vortexed for 5 min with shaking, and then centrifuged at 4000 rpm for 10 min. […] The samples were analyzed by LC-MS/MS.
The concentrations (peak area ratios) of the example compounds were determined by LC-MS/MS. Rate constants were obtained by plotting "Ln (residual amount of compound %)" versus "incubation time" in Excel, thereby calculating the half-lives and intrinsic clearances of the drugs and providing a basis for the prediction of the in-vivo clearance.
[formula] CLH = CLint × fu × Qh /(CLint×fu+Qh) [formula]
Stability in human liver microsomes

The target of series [2] is T1, hERG (Homo sapiens, UniProt Q12809).
T1 construct: purchased ThermoFisher Scientific PV5365
Kind of series: hERG test (Predictor hERG Fluorescence Polarization Assay Kit). The series is classed as binding. The following applies: for inhibition at 3.5 h, 10 µM: 10 µM test substance, three duplicate wells; for IC50: only 10 µM tested. An outline of the steps: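 Fluorescence polarization tracer displacement using hERG membranes and Tracer Red, test compound at 10 µM final, E-4031 as positive control, triplicate wells. Incubated 3.5 h at 25 °C in the dark; mP read (G factor 2.14) and percent inhibition calculated.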

The subject of series [3] is MTAP^-/- HCT-116 cells. As to the kind of experiment: Cell proliferation (MTS), MTAP-/- HCT-116. In kind it is cell-based, human. Particulars: for IC50: Homo sapiens, 240 h, MTAP-/- HCT-116, 10 days with compound, MTS reading, read-out: IC50 HCT116 MTAP-/-; for Selectivity: HCT116 WT IC50 relative to HCT116 MTAP-/- IC50. Summed up: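 MTAP-/- (CRISPR/Cas9 biallelic knockout) or wild-type HCT-116 cells seeded at 100 cells/well, treated next day with 8-point 3-fold dilutions (top 20 µM) for 10 days at 37 °C, 5% CO2. Viability read by MTS; IC50 from four-parameter logistic fit of inhibition rate vs log concentration.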

Series [4] has as its system wild-type HCT-116 cells. As to the kind of experiment: Cell proliferation (MTS), wild-type HCT-116. The series is classed as cell-based. Particulars: Homo sapiens, 240 h; wild-type HCT-116, 10 days with compound, MTS reading; read-out: IC50 HCT116 WT. Summed up: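 Wild-type HCT-116 cells were seeded at 100 cells/well in McCoy's 5A/10% FBS. From day 1 they were treated with compound in 3-fold dilutions (initial 20 µM, 8 points) for 10 days at 37° C. Proliferation was read by MTS on day 11, and IC50 was obtained from a four-parameter logistic fit.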

Where [5] appears, read: human, probe Predictor hERG Tracer Red.

T1 sequence (Q12809 whole entry): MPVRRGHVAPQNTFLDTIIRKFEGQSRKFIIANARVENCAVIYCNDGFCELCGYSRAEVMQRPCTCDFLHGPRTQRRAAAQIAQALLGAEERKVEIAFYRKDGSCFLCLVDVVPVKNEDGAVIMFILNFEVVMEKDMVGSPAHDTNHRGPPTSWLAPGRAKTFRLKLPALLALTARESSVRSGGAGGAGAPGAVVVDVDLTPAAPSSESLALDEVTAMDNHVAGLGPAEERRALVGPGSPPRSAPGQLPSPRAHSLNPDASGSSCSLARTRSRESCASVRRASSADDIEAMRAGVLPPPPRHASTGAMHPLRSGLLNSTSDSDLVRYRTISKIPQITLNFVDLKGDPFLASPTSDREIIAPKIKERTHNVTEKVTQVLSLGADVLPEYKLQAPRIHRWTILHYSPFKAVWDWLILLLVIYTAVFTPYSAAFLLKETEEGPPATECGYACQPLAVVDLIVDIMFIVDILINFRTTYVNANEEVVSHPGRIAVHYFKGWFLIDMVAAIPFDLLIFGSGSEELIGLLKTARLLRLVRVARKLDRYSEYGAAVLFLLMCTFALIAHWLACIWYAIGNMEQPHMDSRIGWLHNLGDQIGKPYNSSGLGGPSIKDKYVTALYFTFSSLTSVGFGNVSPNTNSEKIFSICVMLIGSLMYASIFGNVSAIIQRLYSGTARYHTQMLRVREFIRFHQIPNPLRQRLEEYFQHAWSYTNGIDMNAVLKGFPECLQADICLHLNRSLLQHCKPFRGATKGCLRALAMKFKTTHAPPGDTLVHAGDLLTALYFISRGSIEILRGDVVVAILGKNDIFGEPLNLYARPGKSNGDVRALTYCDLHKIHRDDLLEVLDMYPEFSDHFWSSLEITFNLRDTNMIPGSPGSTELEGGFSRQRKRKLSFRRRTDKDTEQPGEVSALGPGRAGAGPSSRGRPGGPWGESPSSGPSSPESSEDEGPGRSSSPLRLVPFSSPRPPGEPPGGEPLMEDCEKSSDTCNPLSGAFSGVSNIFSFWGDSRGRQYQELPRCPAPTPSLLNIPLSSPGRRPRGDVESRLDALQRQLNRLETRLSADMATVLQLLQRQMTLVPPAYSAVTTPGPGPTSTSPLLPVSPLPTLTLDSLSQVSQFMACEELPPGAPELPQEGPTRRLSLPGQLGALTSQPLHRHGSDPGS

Consider `CN(C(=O)c1cc2c(cc1F)nc(N)c1cnn(C)c12)[C@@H]1COc2cc(C#Cc3cnn(C)c3)ccc21` [Compound 5A, (S)-4-amino-7-fluoro-N,1-dimethyl-N-(6-((1-methyl-1H-pyrazol-4-yl)ethynyl)-2,3-dihydrobenzofuran-3-yl)-1H-pyrazolo[4,3-c]quinoline-8-carboxamide], for which the half-life at 1 µM in series [1] stood at 1.11 h. Moreover, the inhibition at 3.5 h, 10 µM in series [2] (herg membrane fluorescence polarization) was 27.7%. The IC50 in series [2] was greater than 10 µM; in series [3], 0.0017 µM; in series [4], 0.17 µM.
For `CN(C(=O)c1cc2c3c(c(N)nc2cc1Cl)COC3)[C@@H]1COc2cc(C#Cc3cnn(C4CC4)c3)ccc21` [Compound 43A, (S)-4-amino-7-chloro-N-(6-((1-cyclopropyl-1H-pyrazol-4-yl)ethynyl)-2,3-dihydrobenzofuran-3-yl)-N-methyl-1,3-dihydrofuro[3,4-c]quinoline-8-carboxamide], the half-life at 1 µM in series [1] was 2.03 h. Besides, the inhibition at 3.5 h, 10 µM in series [2] (setting [5]) was 30.3 ± 29.9%. The IC50 in series [2] is greater than 10 µM; in series [3], 0.0038 µM; in series [4] it was 0.646 µM. Also, in series [3], the Selectivity is listed as 170.
With `Cc1nn(C)cc1C#Cc1ccc2c(c1)OC[C@H]2N(C)C(=O)c1cc2c3c(c(N)nc2cc1Cl)COC3` [Compound 50A, (S)-4-amino-7-chloro-N-(6-((1,3-dimethyl-1H-pyrazol-4-yl)ethynyl)-2,3-dihydrobenzofuran-3-yl)-N-methyl-1,3-dihydrofuro[3,4-c]quinoline-8-carboxamide], the half-life at 1 µM in series [1] was 0.832 h. The inhibition at 3.5 h, 10 µM in series [2] (setting [5]) is 22.4%. Further, the values for the IC50 in series [2], in series [3] and in series [4] were greater than 10 µM, 0.0024 µM and 0.431 µM, respectively. Moreover, in series [3], the Selectivity was determined as 180.
